A short description of the data set: Pharmacokinetic study in minipigs, i.v. administration. Details: species or system Göttingen minipigs. Particulars: minipig, in vivo, iv. The protocol:
The purpose of this example is to determine the half-life in vivo of the triple agonists as described herein after i.v. administration to minipigs, i.e. the prolongation of their time in the body and thereby their time of action. This is done in a pharmacokinetic (PK) study, where the terminal half-life of the triple agonist in question is determined. By terminal half-life is generally meant the period of time it takes to halve a certain plasma concentration, measured after the initial distribution phase.
Female Göttingen minipigs were obtained from Ellegaard Göttingen Minipigs (Dalmose, Denmark) approximately 7-14 months of age and weighing from approximately 16-35 kg were used in the studies. The minipigs were housed individually and fed restrictedly once daily with SDS minipig diet (Special Diets Services, Essex, UK).
After at 3 weeks of acclimatisation two permanent central venous catheters were implanted in vena cava caudalis in each animal. The animals were allowed 1 week recovery after the surgery, and were then used for repeated pharmacokinetic studies with a suitable wash-out period between successive dosings.
The animals were fasted for approximately 18 hours before dosing and from 0 to 4 hours after dosing, but had adlibitum access to water during the whole period.
Intravenous injections (the volume corresponding to usually 1.5-2 nmol/kg, for example 0.1 mL/kg) of the triple agonists were given through one catheter, and blood was sampled at predefined time points for up to 14 days post dosing (preferably through the other catheter). Blood samples (for example 0.8 mL) were collected in 8 mM EDTA buffer and then centrifuged at 4° C. and 1942 g for 10 minutes.
Plasma was pipetted into Micronic tubes on dry ice and kept at −20° C. until analysed for plasma concentration of the triple agonists using ELISA, or a similar antibody-based assay, or LCMS. Individual plasma concentration-time profiles were analysed by a non-compartmental model in Phoenix WinNonLin ver. 6.4. (Pharsight Inc., Mountain View, CA, USA), and the resulting terminal half-lives (harmonic mean) determined.

These results are taken from patent publication US20230391845A1, “GLP-1, GIP AND GLUCAGON RECEPTOR TRIPLE AGONISTS” (priority 2020, published 2023).

SMILES strings stand for the structures. *1 amine or outer side, *2 acyl side, *3 side chain or, on linkers, in order; H or OH if unused. Where a SMILES comes first, the peptide text is derived from it. Side-chain parts run from the residue outwards. [ ]: non-standard residue; d: D form. The star is where a group is joined. X1 = O=C(O)CCCCCCCCCCCCCCCCCCC(=O)NCC1CCC(C(=O)*)CC1; C20 diacid = O=C(O)CCCCCCCCCCCCCCCCCCC(=O)*; C18 diacid = O=C(O)CCCCCCCCCCCCCCCCC(=O)*; γGlu = O=C(O)[C@H](CCC(=O)[*:2])N[*:1]; εLys = N[C@@H](CCCCN[*:1])C(=O)[*:2]; AEEA = NCCOCCOCC(=O)O; Aib = CC(C)(N)C(=O)O

By half-life is commonly meant the time in which the quantity being followed falls by half.

Consider `CC(C)C[C@H](NC(=O)[C@H](CC(C)C)NC(=O)[C@H](Cc1c[nH]c2ccccc12)NC(=O)[C@H](CCC(N)=O)NC(=O)[C@@H](NC(=O)[C@H](Cc1ccccc1)NC(=O)[C@H](CCC(=O)O)NC(=O)C(C)(C)NC(=O)[C@H](C)NC(=O)[C@H](C)NC(=O)[C@H](CCC(N)=O)NC(=O)[C@H](CCCCNC(=O)[C@@H](N)CCCCNC(=O)[C@@H](N)CCCCNC(=O)CC[C@H](NC(=O)C1CCC(CNC(=O)CCCCCCCCCCCCCCCCCCC(=O)O)CC1)C(=O)O)NC(=O)[C@H](CCC(=O)O)NC(=O)[C@H](CC(C)C)NC(=O)[C@H](Cc1ccc(O)cc1)NC(=O)[C@H](Cc1ccc(O)cc1)NC(=O)[C@H](CO)NC(=O)[C@H](Cc1ccc(O)cc1)NC(=O)[C@H](CC(=O)O)NC(=O)[C@H](CO)NC(=O)[C@@H](NC(=O)[C@H](Cc1ccccc1)NC(=O)[C@@H](NC(=O)CNC(=O)[C@H](Cc1c[nH]cn1)NC(=O)C(C)(C)NC(=O)[C@@H](N)Cc1c[nH]cn1)[C@@H](C)O)[C@@H](C)O)C(C)C)C(=O)N[C@@H](CCC(=O)O)C(=O)NCC(=O)NCC(=O)N1CCC[C@H]1C(=O)N[C@@H](CO)C(=O)N[C@@H](CO)C(=O)NCC(=O)N[C@@H](C)C(=O)N1CCC[C@H]1C(=O)N1CCC[C@H]1C(=O)N1CCC[C@H]1C(=O)N[C@@H](CO)C(N)=O` (some centres unmarked) [Compound No. 25] (H-H[Aib]HGTFTSDYSYYLEK([εLys-εLys-γGlu-X1])QAA[Aib]EFVQWLLEGGPSSGAPPPS-NH2; N-terminus assumed), for which the half-life is 79 h.
Turning to `CC[C@H](C)[C@H](NC(=O)[C@H](CO)NC(=O)[C@H](Cc1ccc(O)cc1)NC(=O)[C@H](CC(=O)O)NC(=O)[C@H](CO)NC(=O)[C@@H](NC(=O)[C@H](Cc1ccccc1)NC(=O)[C@@H](NC(=O)CNC(=O)[C@H](CCC(N)=O)NC(=O)C(C)(C)NC(=O)[C@@H](N)Cc1ccc(O)cc1)[C@@H](C)O)[C@@H](C)O)C(=O)N[C@@H](Cc1ccc(O)cc1)C(=O)N[C@@H](CC(C)C)C(=O)N[C@@H](CC(=O)O)C(=O)N[C@@H](CCCCNC(=O)COCCOCCNC(=O)COCCOCCNC(=O)CC[C@H](NC(=O)C1CCC(CNC(=O)CCCCCCCCCCCCCCCCCCC(=O)O)CC1)C(=O)O)C(=O)N[C@@H](CCC(N)=O)C(=O)N[C@@H](C)C(=O)N[C@@H](C)C(=O)NC(C)(C)C(=O)N[C@@H](CCC(=O)O)C(=O)N[C@@H](Cc1ccccc1)C(=O)N[C@H](C(=O)N[C@@H](CC(N)=O)C(=O)N[C@@H](Cc1c[nH]c2ccccc12)C(=O)N[C@@H](CC(C)C)C(=O)N[C@@H](CC(C)C)C(=O)N[C@@H](C)C(=O)NCC(=O)NCC(=O)N1CCC[C@H]1C(=O)N[C@@H](CO)C(=O)N[C@@H](CO)C(=O)NCC(=O)N[C@@H](C)C(=O)N1CCC[C@H]1C(=O)N1CCC[C@H]1C(=O)N1CCC[C@H]1C(=O)N[C@@H](CO)C(N)=O)C(C)C` (some centres unmarked) [Compound No. 6] (H-Y[Aib]QGTFTSDYSIYLDK([AEEA-AEEA-γGlu-X1])QAA[Aib]EFVNWLLAGGPSSGAPPPS-NH2), the half-life was 83 h.
As for `CC(C)C[C@H](NC(=O)[C@H](CC(C)C)NC(=O)[C@H](Cc1c[nH]c2ccccc12)NC(=O)[C@H](CCC(N)=O)NC(=O)[C@@H](NC(=O)[C@H](Cc1ccccc1)NC(=O)[C@H](CCC(=O)O)NC(=O)C(C)(C)NC(=O)[C@H](C)NC(=O)[C@H](C)NC(=O)[C@H](CCC(N)=O)NC(=O)[C@H](CCCCNC(=O)[C@@H](N)CCCCNC(=O)[C@@H](N)CCCCNC(=O)CC[C@H](NC(=O)CCCCCCCCCCCCCCCCC(=O)O)C(=O)O)NC(=O)[C@H](CCC(=O)O)NC(=O)[C@H](CC(C)C)NC(=O)[C@H](Cc1ccc(O)cc1)NC(=O)[C@H](Cc1ccc(O)cc1)NC(=O)[C@H](CO)NC(=O)[C@H](Cc1ccc(O)cc1)NC(=O)[C@H](CC(=O)O)NC(=O)[C@H](CO)NC(=O)[C@@H](NC(=O)[C@H](Cc1ccccc1)NC(=O)[C@@H](NC(=O)CNC(=O)[C@H](Cc1c[nH]cn1)NC(=O)C(C)(C)NC(=O)[C@@H](N)Cc1c[nH]cn1)[C@@H](C)O)[C@@H](C)O)C(C)C)C(=O)N[C@@H](CCC(=O)O)C(=O)NCC(=O)NCC(=O)N1CCC[C@H]1C(=O)N[C@@H](CO)C(=O)N[C@@H](CO)C(=O)NCC(=O)N[C@@H](C)C(=O)N1CCC[C@H]1C(=O)N1CCC[C@H]1C(=O)N1CCC[C@H]1C(=O)N[C@@H](CO)C(N)=O` [Compound No. 32] (H-H[Aib]HGTFTSDYSYYLEK([εLys-εLys-γGlu-C18 diacid])QAA[Aib]EFVQWLLEGGPSSGAPPPS-NH2), the half-life (female, Göttingen) is 52 h.
The same measure, in the same setting: the same measure for `CC[C@H](C)[C@H](NC(=O)[C@H](CO)NC(=O)[C@H](Cc1ccc(O)cc1)NC(=O)[C@H](CC(=O)O)NC(=O)[C@H](CO)NC(=O)[C@@H](NC(=O)[C@H](Cc1ccccc1)NC(=O)[C@@H](NC(=O)CNC(=O)[C@H](CCC(N)=O)NC(=O)C(C)(C)NC(=O)[C@@H](N)Cc1ccc(O)cc1)[C@@H](C)O)[C@@H](C)O)C(=O)N[C@@H](Cc1ccc(O)cc1)C(=O)N[C@@H](CC(C)C)C(=O)N[C@@H](CC(=O)O)C(=O)N[C@@H](CCCCNC(=O)COCCOCCNC(=O)COCCOCCNC(=O)CC[C@H](NC(=O)CCCCCCCCCCCCCCCCCCC(=O)O)C(=O)O)C(=O)N[C@@H](CCC(N)=O)C(=O)N[C@@H](C)C(=O)N[C@@H](C)C(=O)NC(C)(C)C(=O)N[C@@H](CCC(=O)O)C(=O)N[C@@H](Cc1ccccc1)C(=O)N[C@H](C(=O)N[C@@H](CC(N)=O)C(=O)N[C@@H](Cc1c[nH]c2ccccc12)C(=O)N[C@@H](CC(C)C)C(=O)N[C@@H](CC(C)C)C(=O)N[C@@H](C)C(=O)NCC(=O)NCC(=O)N1CCC[C@H]1C(=O)N[C@@H](CO)C(=O)N[C@@H](CO)C(=O)NCC(=O)N[C@@H](C)C(=O)N1CCC[C@H]1C(=O)N1CCC[C@H]1C(=O)N1CCC[C@H]1C(=O)N[C@@H](CO)C(N)=O)C(C)C` [Compound No. 5] (H-Y[Aib]QGTFTSDYSIYLDK([AEEA-AEEA-γGlu-C20 diacid])QAA[Aib]EFVNWLLAGGPSSGAPPPS-NH2; N-terminus assumed): 85 h.
The same measure, in the same setting: the same measure for `CC[C@H](C)[C@H](NC(=O)[C@H](CO)NC(=O)[C@H](Cc1ccc(O)cc1)NC(=O)[C@H](CC(=O)O)NC(=O)[C@H](CO)NC(=O)[C@@H](NC(=O)[C@H](Cc1ccccc1)NC(=O)[C@@H](NC(=O)CNC(=O)[C@H](CCC(N)=O)NC(=O)C(C)(C)NC(=O)[C@@H](N)Cc1ccc(O)cc1)[C@@H](C)O)[C@@H](C)O)C(=O)N[C@@H](Cc1ccc(O)cc1)C(=O)N[C@@H](CC(C)C)C(=O)N[C@@H](CC(=O)O)C(=O)N[C@@H](CCCCN)C(=O)N[C@@H](CCC(N)=O)C(=O)N[C@@H](C)C(=O)N[C@@H](C)C(=O)NC(C)(C)C(=O)N[C@@H](CCCCNC(=O)COCCOCCNC(=O)COCCOCCNC(=O)CC[C@H](NC(=O)CCCCCCCCCCCCCCCCCCC(=O)O)C(=O)O)C(=O)N[C@@H](Cc1ccccc1)C(=O)N[C@H](C(=O)N[C@@H](CCC(N)=O)C(=O)N[C@@H](Cc1c[nH]c2ccccc12)C(=O)N[C@@H](CC(C)C)C(=O)N[C@@H](CC(C)C)C(=O)N[C@@H](CCC(=O)O)C(=O)NCC(=O)NCC(=O)N1CCC[C@H]1C(=O)N[C@@H](CO)C(=O)N[C@@H](CO)C(=O)NCC(=O)N[C@@H](C)C(=O)N1CCC[C@H]1C(=O)N1CCC[C@H]1C(=O)N1CCC[C@H]1C(=O)N[C@@H](CO)C(N)=O)C(C)C` [Compound No. 7] (H-Y[Aib]QGTFTSDYSIYLDKQAA[Aib]K([AEEA-AEEA-γGlu-C20 diacid])FVQWLLEGGPSSGAPPPS-NH2; N-terminus assumed): 79 h.
